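The concentration for 50% growth inhibition is given as GI50. TGI: total growth inhibition.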
Legend:
Experiment in all cases: NCI-60 cell line screen, 384-well format
[1] = tested on: SF-539 CNS
[2] = tested on: COLO 205 colon
[3] = tested on: HT29 colon
[4] = tested on: OVCAR-4 ovarian
[5] = tested on: HL-60(TB) leukemia
[6] = tested on: K-562 leukemia
[7] = tested on: SR leukemia
[8] = tested on: SNB-75 CNS
[9] = tested on: HS 578T breast
[10] = tested on: KM12 colon
[11] = tested on: MDA-MB-231 breast
[12] = tested on: CAKI-1 renal
[13] = tested on: U251 glioblastoma
[14] = tested on: OVCAR-5 ovarian
[15] = tested on: UO-31 renal
[16] = tested on: OVCAR-3 ovarian
[17] = tested on: NCI-H460 NSCLC
[18] = tested on: DU-145 prostate
[19] = tested on: HCT-116 colon
[20] = tested on: T-47D breast
[21] = tested on: NCI-H322M lung
[22] = tested on: MOLT-4 leukemia
[23] = tested on: SN12C renal
[24] = tested on: A549 NSCLC
[25] = tested on: MDA-MB-468 breast
[26] = tested on: 786-0 renal
[27] = tested on: PC-3 prostate
[28] = tested on: BT-549 breast

CN[C@@H](C)C(=O)N[C@H](C(=O)N1CCC[C@H]1C(=O)Nc1sc(-c2ncco2)nc1-c1ccccc1)C1CCCCC1
GI50 [1]: 3.44 µM
TGI [1]: 17.3 µM
GI50 [2]: 2.05 µM
TGI [2]: 16 µM
GI50 [3]: 5.63 µM
TGI [3]: 18.1 µM
GI50 [4]: < 0.01 µM
GI50 [5]: 0.0148 µM
TGI [5]: 0.584 µM
GI50 [6]: 2.18 µM
TGI [6]: 16.6 µM
GI50 [7]: 0.182 µM
TGI [7]: 0.592 µM
GI50 [8]: 2.52 µM
TGI [8]: 11.1 µM
GI50 [9]: 0.609 µM
TGI [9]: 15.4 µM
GI50 [10]: 1.21 µM
TGI [10]: 10.5 µM
GI50 [11]: 0.14 µM
TGI [11]: 0.909 µM
GI50 [12]: 11.2 µM
TGI [12]: 23.3 µM
GI50 [13]: 5.48 µM
TGI [13]: 19.3 µM
GI50 [14]: 10.7 µM
TGI [14]: 34.2 µM
GI50 [15]: 15.9 µM
TGI [15]: 29.6 µM
GI50 [16]: 1.36 µM
TGI [16]: 15.5 µM
GI50 [17]: 7.4 µM
TGI [17]: 21.3 µM
GI50 [18]: 1.03 µM
TGI [18]: 10.5 µM
GI50 [19]: 0.43 µM
TGI [19]: 14.3 µM
GI50 [20]: 16.7 µM
TGI [20]: 30.5 µM
GI50 [21]: 13.5 µM
TGI [21]: 39.6 µM
GI50 [22]: 4.34 µM
TGI [22]: 14.9 µM
GI50 [23]: 11 µM
TGI [23]: 23.6 µM
GI50 [24]: 11.6 µM
TGI [24]: > 100 µM
GI50 [25]: 0.476 µM
TGI [25]: 5.23 µM
GI50 [26]: 6.69 µM
TGI [26]: 19.9 µM
GI50 [27]: 6.22 µM
TGI [27]: 19.8 µM
GI50 [28]: 0.234 µM
